# Reference: patent US10167326B2, “Alpha-fetoprotein “ring and tail” peptides” (ALBANY MEDICAL COLLEGE, priority 2010, dated 2019)
# “Also recorded” adds a separate entry of the source. Non-standard residues stand in square brackets, D forms with d. Residues, ends and D or L forms follow the SMILES beside them. Hyp = O=C(O)[C@@H]1C[C@@H](O)CN1
# What was measured:
# [1] = tested on: E2-stimulated immature mouse uterine growth; experiment: immature mouse uterine growth assay (inhibition of E2-stimulated uterine growth); assay type: in vivo
# Procedure: Four cyclic peptides of decreasing ring size (Table 1) were synthesized and were assessed for antiestrogenic activity using the immature mouse uterine assay. Negative control mice received saline alone. Positive control mice received E2 alone. AFPep was used as a positive control peptide and cyclic Scr was used as a peptide control. Mice were injected intraperitoneally (i.p.) with each of these peptides at a dose of 1 μg/mouse. One hour later mice received 0.5 ug 17β-estradiol (E2) i.p. Twenty-two hours later uteri were dissected, weighed, and normalized to body weight. The results are reported as mean±S.E (n=5) for four independent experiments.
# (§1) A ‘tail’ was attached to a nine-amino acid ring and included 1 or 2 amino acids defined as hydrophilic or hydrophobic based on the nature of their side-chains. Tails comprising the following amino acid(s): serine (S), tyrosine (Y), […], glutamic acid (E), phenylalanine-serine (FS) and tyrosine-isoleucine (YI) represent hydrophilic tails and tails comprising the following amino acid(s), phenylalanine (F), isoleucine (I) and phenylalanine-isoleucine (FI) are hydrophobic tails. All peptides were administered at a dose of 1 μg/mouse intraperitoneally or 10 μg/mouse by oral gavage. Values are presented as mean±S.E. (n=5). In culture, T47D cells were treated with each peptide at a concentration of 1 μM. Values are presented as mean±S.E (n=6). […] Wilcoxon Rank Sum Test.
# (§2) All peptides were administered at a dose of 1 μg/mouse intraperitoneally or 10 μg/mouse by oral gavage. Values are presented as mean±S.E (n=5). In culture, T47D cells were treated with each peptide at a concentration of 1 μM. Values are presented as mean±S.E (n=6). […] Wilcoxon Rank Sum Test.
# To evaluate peptide-induced inhibition by the peptide of the present invention of estrogen-stimulated proliferation of normal tissue, the immature mouse uterine growth assay was utilized. Briefly, 13-15 day-old Swiss/Webster female mice, 6-8 g in body weight, were distributed into treatment groups of 5 mice per group so that each group contained animals of the same range of body weight. The peptide of the invention was injected i.p., s.c., or p.o. into the mice. One hour later, estradiol (E2) or vehicle control for E2 was injected i.p. Twenty-two hours after the second injection, uteri were harvested, trimmed free of mesenteries, and immediately weighed. The uterine weights were normalized to mouse body weights to compensate for differences in body weight among litters of the same age. Experiments employed a minimum of five mice per group and the mean normalized uterine weight±SE for each group was calculated. Percent growth inhibition in a test group was calculated from normalized uterine wet weights as described below.
# The ability to inhibit E2-stimulated growth of normal mouse uterus was used as a screening assay for biological activity of AFPep analogs. In general, inhibitory activity ≥20% is considered to be biologically significant. Each analog's inhibitory effect on E2-stimulated growth was compared to AFPep (a positive control) and to PGVGQ (SEQ ID NO: 51)(a negative control). PGVGQ (SEQ ID NO: 51 amino acids 478-482 of AFP) is a portion of the primary structure of AFP near to the anti-cancer active site of AFP and is comprised of amino acids (P, V, and G) that are important components of AFPep.
# p53 = conditions: cited from earlier work
# [2] = tested on: estrogen receptor phosphorylation at serine-118; conditions: cited from earlier work
# [3] = tested on: T47D human breast cancer cells; experiment: T47D cell proliferation assay in the presence of E2; assay type: cell-based; conditions: different concentrations in vitro (FIG. 7)
# [4] = tested on: T47D human breast cancer cells; experiment: as above; assay type: cell-based
# Procedure: Anticancer activity of the cyclic peptides was also evaluated using the T47D cell proliferation assay. T47D cells were cultured on collagen-IV coated 24-well plates and treated with each of above peptides in the presence of E2. Final peptide concentrations of each peptide were 10^−6 M and final E2 concentration was 1 nM. Values are reported as mean±SEM (n=6) of four independent experiments. […] One-way ANOVA followed by Tukey's multiple comparison test. p≤0.05.
# as §1, §2
# p21Cip1 = conditions: cited from earlier work
# estrogen receptor = target: T1, estrogen receptor (Homo sapiens, UniProt P03372); conditions: cited from earlier work
# T1 sequence (P03372 1-595): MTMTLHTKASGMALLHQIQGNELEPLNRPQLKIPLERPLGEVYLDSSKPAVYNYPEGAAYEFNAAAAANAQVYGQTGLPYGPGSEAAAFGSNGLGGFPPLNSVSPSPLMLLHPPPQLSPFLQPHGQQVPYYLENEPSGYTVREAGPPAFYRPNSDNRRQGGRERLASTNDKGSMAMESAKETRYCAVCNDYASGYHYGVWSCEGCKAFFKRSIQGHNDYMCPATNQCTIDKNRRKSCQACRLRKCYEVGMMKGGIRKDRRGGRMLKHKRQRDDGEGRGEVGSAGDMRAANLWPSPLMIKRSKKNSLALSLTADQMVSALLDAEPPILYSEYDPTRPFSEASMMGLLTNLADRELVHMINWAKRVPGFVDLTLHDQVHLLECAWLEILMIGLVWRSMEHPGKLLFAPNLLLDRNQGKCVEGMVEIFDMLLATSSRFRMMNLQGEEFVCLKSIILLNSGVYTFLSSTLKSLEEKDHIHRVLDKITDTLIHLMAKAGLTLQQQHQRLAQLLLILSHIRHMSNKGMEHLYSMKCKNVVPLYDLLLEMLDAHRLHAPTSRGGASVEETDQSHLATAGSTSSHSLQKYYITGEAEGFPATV
# c-erb2 = conditions: after stimulation by E2 or EGF in MCF-7 cells; cited from earlier work
smiles,measurement,setting,value
"CC(C)[C@@H]1NC(=O)[C@@H]2C[C@@H](O)CN2C(=O)[C@H]([C@@H](C)O)NC(=O)[C@H](CCCCN)NC(=O)[C@H](CCC(=O)O)NC(=O)[C@H](CC(N)=O)NC(=O)CNC(=O)[C@@H]2C[C@@H](O)CN2C(=O)[C@H](CC(N)=O)NC1=O [AFPep, cyclo[EKTOVNOGN], reference compound] (cyclo(EKT[Hyp]VN[Hyp]GN))",antiestrogenic activity of cyclic analogs of different ring size (uterine growth inhibition),[1]; 1 μg/mouse i.p. (FIG. 5A),significantly better inhibition of E2-stimulated growth in vivo and in vitro than the other analogs
same,uterine growth inhibition dose response of AFPep combined with antagonist analog,"[1]; combination of AFPep and ring and tail antagonist with disrupted pharmacophore and hydrophilic tail (FIG. 11, 12)",restored by addition of the antagonist analog; also recorded: can be overcome by using a combination of AFPep and an analog with a hydrophilic tail; also recorded: sigmoidal dose range curve
same,"inhibition of E2-stimulated uterine growth, dose response profile",[1]; over a number of doses (FIG. 6),significantly inhibited E2-stimulated uterine growth to a dose of 10 μg and then loses its effectiveness at higher doses
same,serine-15 phosphorylation on p53,p53,significantly increased
same,E2-induced estrogen receptor phosphorylation at serine-118,[2],significantly inhibited
same,"inhibition of E2-stimulated T47D human breast cancer cell growth, concentration response profile",[3],inhibited E2-stimulated T47D cell growth up to a concentration of 10^−6M and then loss its effectiveness at higher concentrations
same,"Inhibition ± S.E, % T47D cell proliferation","[4]; peptide 1 μM, E2-stimulated, mean±S.E (n=6), * p<0.05 vs E2 alone",51 ± 4* %
same,anticancer activity of cyclic analogs of different ring size (T47D proliferation inhibition),"[4]; peptide 10^−6 M, E2 1 nM (FIG. 5B)",significantly different from the other analogs; also recorded: significantly better inhibition of E2-stimulated growth in vivo and in vitro than the other analogs
same,nuclear p21Cip1 activation,p21Cip1,increases
same,binding to the E2-binding site of the estrogen receptor,estrogen receptor,does not bind
same,transactivation of c-erb2 leading dephosphorylated ERK1/2,c-erb2,prevent the transactivation of c-erb2
